Experimental data from US20240270821A1, “GIP/GLP1/GCG TRI-RECEPTOR AGONISTS AND USES THEREOF” (priority 2023, published 2024).
Where two headings read alike, the source gives them in different places. Starred links: 1 amine or outer side, 2 acyl side, 3 side chain; linkers in the order of their positions; H or OH if unused. Non-standard residues stand in square brackets, D forms with d. Residues, ends and D or L forms follow the SMILES beside them. Groups on a side chain read outwards from the residue. No end group written: not given here. *: point of attachment. C20 diacid = O=C(O)CCCCCCCCCCCCCCCCCCC(=O)*; C18 diacid = O=C(O)CCCCCCCCCCCCCCCCC(=O)*; αMePhe(2-F) = C[C@](N)(Cc1ccccc1F)C(=O)O; γGlu = O=C(O)[C@H](CCC(=O)[*:2])N[*:1]; αMe4Pal = C[C@](N)(Cc1ccncc1)C(=O)O; αMeY = C[C@](N)(Cc1ccc(O)cc1)C(=O)O; 4Pal = N[C@@H](Cc1ccncc1)C(=O)O; αMeL = CC(C)C[C@](C)(N)C(=O)O; αMeS = C[C@](N)(CO)C(=O)O; Orn = NCCC[C@H](N)C(=O)O; AEEA = NCCOCCOCC(=O)O; Aib = CC(C)(N)C(=O)O

Experiments:
Assay type in all cases: cell-based
[1] = molecular target: T1, hGLP-1R (Homo sapiens, UniProt P43220); test: Functional cAMP activation in the presence of 0.1% casein (no HSA); details: read-out: Relative cAMP EC50, hGLP-1R;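 further: intracellular cAMP rise after 30 min at 37 °C read by HTRF, normalized between buffer only (0%) and maximal control ligand (100%), four-parameter variable-slope fit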
[2] = molecular target: T2, hGIPR (Homo sapiens, UniProt P48546); test: Functional cAMP activity in the presence of 1% HSA; details: read-out: cAMP Rel EC50, hGIPR
T2 sequence (P48546 22-466): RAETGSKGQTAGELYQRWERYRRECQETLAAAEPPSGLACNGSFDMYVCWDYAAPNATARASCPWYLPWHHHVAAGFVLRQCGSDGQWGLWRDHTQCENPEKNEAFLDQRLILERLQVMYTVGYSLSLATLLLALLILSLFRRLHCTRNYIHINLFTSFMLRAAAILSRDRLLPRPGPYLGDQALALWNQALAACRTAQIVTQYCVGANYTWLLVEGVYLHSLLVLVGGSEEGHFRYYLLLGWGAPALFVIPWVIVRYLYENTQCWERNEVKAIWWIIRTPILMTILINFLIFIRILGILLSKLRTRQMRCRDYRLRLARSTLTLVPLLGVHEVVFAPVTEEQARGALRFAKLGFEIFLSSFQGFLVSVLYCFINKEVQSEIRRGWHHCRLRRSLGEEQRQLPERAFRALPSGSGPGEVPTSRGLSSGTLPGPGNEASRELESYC

[3] = molecular target: T2, hGIPR; test: Functional cAMP activation in the presence of 0.1% casein (no HSA); details: read-out: Relative cAMP EC50, hGIPR;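 further: intracellular cAMP rise after 30 min at 37 °C read by HTRF against a standard curve, scaled between buffer alone (0%) and top control ligand concentration (100%), four-parameter fit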
[4] = molecular target: human GcgR (Homo sapiens, UniProt P47871); test: Functional cAMP activity in the presence of 1% HSA; details: read-out: cAMP Rel EC50, hGcgR
[5] = molecular target: hGcgR (Homo sapiens, UniProt P47871); test: Functional cAMP activation in the presence of 0.1% casein (no HSA); details: read-out: Relative cAMP EC50, hGcgR;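 further: intracellular cAMP rise after 30 min at 37 °C, read by HTRF against a cAMP standard curve, scaled from buffer only (0%) to maximal control ligand response (100%)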
[6] = molecular target: T1, hGLP-1R; test: Functional cAMP activity in the presence of 1% HSA; details: read-out: cAMP Rel EC50, hGLP-1R
[7] = 0.1% casein, no HSA, geometric mean
[8] = in the presence of 0.1% casein (no HSA), geometric mean

T1 sequence (P43220 24-463): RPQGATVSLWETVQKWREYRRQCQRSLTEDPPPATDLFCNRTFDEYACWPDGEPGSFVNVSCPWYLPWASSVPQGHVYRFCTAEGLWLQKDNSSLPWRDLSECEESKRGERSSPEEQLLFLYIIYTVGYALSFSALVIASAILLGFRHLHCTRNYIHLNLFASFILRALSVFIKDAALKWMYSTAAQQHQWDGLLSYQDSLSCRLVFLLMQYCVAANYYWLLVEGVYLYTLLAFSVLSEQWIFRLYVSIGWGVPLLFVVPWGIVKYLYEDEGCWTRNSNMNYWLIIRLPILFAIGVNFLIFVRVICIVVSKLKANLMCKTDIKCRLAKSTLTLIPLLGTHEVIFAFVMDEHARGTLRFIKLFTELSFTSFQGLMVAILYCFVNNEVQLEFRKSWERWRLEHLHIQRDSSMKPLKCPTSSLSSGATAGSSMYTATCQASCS
hGcgR, sequence (P47871 26-477): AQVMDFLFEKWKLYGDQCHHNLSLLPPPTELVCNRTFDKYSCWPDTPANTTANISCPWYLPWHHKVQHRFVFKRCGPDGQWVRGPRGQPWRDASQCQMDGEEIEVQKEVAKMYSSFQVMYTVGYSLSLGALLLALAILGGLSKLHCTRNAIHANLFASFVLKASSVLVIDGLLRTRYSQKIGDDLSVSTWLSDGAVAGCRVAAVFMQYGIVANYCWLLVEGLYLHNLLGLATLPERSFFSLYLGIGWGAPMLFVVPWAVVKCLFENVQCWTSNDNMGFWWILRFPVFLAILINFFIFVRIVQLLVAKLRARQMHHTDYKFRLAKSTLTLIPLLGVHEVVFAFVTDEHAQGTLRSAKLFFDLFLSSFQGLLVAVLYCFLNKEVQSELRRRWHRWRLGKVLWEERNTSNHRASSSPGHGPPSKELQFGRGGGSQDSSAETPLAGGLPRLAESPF
human GcgR, sequence (P47871 26-477): as above

Row | Compound | EC50 [1, 7] [nM] | EC50 ([2]; HEK-293 cells expressing hGIPR, 1% HSA, geometric mean of relative EC50) [nM] | EC50 [3, 7] [nM] | EC50 ([4]; HEK-293 cells expressing hGcgR, 1% HSA, geometric mean of relative EC50) [nM] | EC50 [5, 7] [nM] | EC50 ([6]; HEK-293 cells expressing hGLP-1R, 1% HSA, geometric mean of relative EC50) [nM] | EC50 [1, 8] [nM] | EC50 [2] [nM] | EC50 [3, 8] [nM] | EC50 [4] [nM] | EC50 [5, 8] [nM] | EC50 [6] [nM] | EC50 [1] [nM] | EC50 [3] [nM] | EC50 [5] [nM]
1 | CC[C@H](C)[C@H](NC(=O)[C@H](Cc1ccccc1)NC(=O)[C@H](C)NC(=O)C(C)(C)NC(=O)[C@H](C)NC(=O)[C@H](C)NC(=O)[C@H](CCCCNC(=O)COCCOCCNC(=O)CC[C@H](NC(=O)CCCCCCCCCCCCCCCCC(=O)O)C(=O)O)NC(=O)[C@H](CCCN)NC(=O)[C@H](CC(=O)O)NC(=O)[C@H](CC(C)C)NC(=O)[C@](C)(CC(C)C)NC(=O)[C@@H](NC(=O)[C@H](CO)NC(=O)[C@H](Cc1ccncc1)NC(=O)[C@H](CC(=O)O)NC(=O)[C@H](CO)NC(=O)[C@@H](NC(=O)[C@](C)(Cc1ccccc1F)NC(=O)[C@@H](NC(=O)CNC(=O)[C@H](CCC(N)=O)NC(=O)C(C)(C)NC(=O)[C@@H](N)Cc1ccc(O)cc1)[C@@H](C)O)[C@@H](C)O)[C@@H](C)CC)C(=O)N[C@H](CCC(=O)O)C(=O)N[C@@](C)(Cc1ccc(O)cc1)C(=O)N[C@@H](CC(C)C)C(=O)N[C@@H](CC(C)C)C(=O)N[C@@H](CCC(=O)O)C(=O)NCC(=O)NCC(=O)N1CCC[C@H]1C(=O)N[C@@H](CO)C(=O)N[C@@H](CO)C(=O)NCC(=O)N[C@@H](CCC(=O)O)C(=O)N1CCC[C@H]1C(=O)N1CCC[C@H]1C(=O)N1CCC[C@H]1C(=O)N[C@@H](CO)C(N)=O [Example 1236] (H-Y[Aib]QGT[αMePhe(2-F)]TSD[4Pal]SI[αMeL]LD[Orn]K([AEEA-γGlu-C18 diacid])AA[Aib]AFI[dE][αMeY]LLEGGPSSGEPPPS-NH2) | 0.304 | 11.9 | 0.052 | 502 | 0.947 | 95.8 | – | – | – | – | – | – | – | – | –
2 | H-Y[Aib]QGTFTSDFS[Orn][αMeL]LDKK([AEEA-γGlu-C20 diacid])AQ[Aib]AFIEYLLAGGPSSGAPPPSGS-NH2 [Example 76] | – | – | – | – | – | – | 2.25 | 45.5 | 0.196 | 2240 | 11.1 | 436 | – | – | –
3 | Y[Aib]Q[dA]T[αMePhe(2-F)]TSD[4Pal][αMeS]I[αMeL]LD[Orn]K([AEEA-γGlu-C18 diacid])AQ[Aib]EFI[dE][αMeY]LIEGGPSSGAPPPSGS-NH2 [Example 1203] | 0.292 | – | 0.0774 | – | 2.58 | – | – | 8.5 | – | 436 | – | 38.9 | – | – | –
4 | H-Y[Aib]QGTFTSD[4Pal]SQ[αMeL]LDKK([γGlu-AEEA-γGlu-C18 diacid])AQ[αMe4Pal]AFIEYLIE[Aib]GPSSGAPPPSGS-NH2 [Example 861] | – | – | – | – | – | – | 2.62 | 18.3 | 0.195 | 1350 | 8.59 | 322 | – | – | –
5 | H-Y[Aib]QGT[αMePhe(2-F)]TSD[4Pal][αMeS]I[αMeL]LD[Orn]K([γGlu-γGlu-C18 diacid])AQ[αMe4Pal]EFI[dE][αMeY]LIEGGPSSGEPPPSGGGE-NH2 [Example 744] | – | – | – | – | – | – | – | 0.488 | – | 111 | – | 22.1 | 0.274 | 0.00844 | 1.04
6 | H-Y[Aib]QGTFTSDFS[Orn][αMeL]LDKK([γGlu-γGlu-C18 diacid])AQ[Aib]AFIEYLLEGGPSSG[Aib]PPPGGS-NH2 [Example 771] | – | – | – | – | – | – | – | 44.2 | – | 955 | – | 665 | 4.38 | 0.232 | 5.05
7 | CC[C@H](C)[C@H](NC(=O)[C@H](Cc1ccccc1)NC(=O)[C@H](C)NC(=O)C(C)(C)NC(=O)[C@H](CCC(N)=O)NC(=O)[C@H](C)NC(=O)[C@H](CCCCNC(=O)CC[C@H](NC(=O)CC[C@H](NC(=O)CCCCCCCCCCCCCCCCC(=O)O)C(=O)O)C(=O)O)NC(=O)[C@H](CCCCN)NC(=O)[C@H](CC(=O)O)NC(=O)[C@H](CC(C)C)NC(=O)[C@](C)(CC(C)C)NC(=O)[C@H](CCCN)NC(=O)[C@H](CO)NC(=O)[C@H](Cc1ccccc1)NC(=O)[C@H](CC(=O)O)NC(=O)[C@H](CO)NC(=O)[C@@H](NC(=O)[C@H](Cc1ccccc1)NC(=O)[C@@H](NC(=O)CNC(=O)[C@H](CCC(N)=O)NC(=O)C(C)(C)NC(=O)[C@@H](N)Cc1ccc(O)cc1)[C@@H](C)O)[C@@H](C)O)C(=O)N[C@@H](CCC(=O)O)C(=O)N[C@@H](Cc1ccc(O)cc1)C(=O)N[C@@H](CC(C)C)C(=O)N[C@@H](CC(C)C)C(=O)N[C@@H](CCC(=O)O)C(=O)NCC(=O)NCC(=O)N1CCC[C@H]1C(=O)N[C@@H](CO)C(=O)N[C@@H](CO)C(=O)NCC(=O)N[C@@H](C)C(=O)N1CCC[C@H]1C(=O)N1CCC[C@H]1C(=O)N1CCC[C@H]1C(=O)N[C@@H](CO)C(=O)NCC(=O)N[C@@H](CO)C(N)=O [Example 199] | – | – | – | – | – | – | 4.91 | 41.6 | 0.232 | 1000 | 5.8 | 1060 | – | – | –
8 | Y[Aib]QGTFTSDFSK[αMeL]LDKK([AEEA-γGlu-C20 diacid])AQ[Aib]AFIQWLLEGGPSSGAPPPSEG-NH2 [Example 39] | – | – | – | – | – | – | 2.13 | 30.5 | 0.299 | 1090 | 10.1 | 260 | – | – | –
9 | CC[C@H](C)[C@H](NC(=O)[C@H](Cc1ccccc1)NC(=O)[C@H](C)NC(=O)C(C)(C)NC(=O)[C@H](CCC(N)=O)NC(=O)[C@H](C)NC(=O)[C@H](CCCCNC(=O)COCCOCCNC(=O)CC[C@H](NC(=O)CCCCCCCCCCCCCCCCC(=O)O)C(=O)O)NC(=O)[C@H](CCCCN)NC(=O)[C@H](CC(=O)O)NC(=O)[C@H](CC(C)C)NC(=O)[C@H](CC(C)C)NC(=O)[C@@H](NC(=O)[C@](C)(CO)NC(=O)[C@H](Cc1ccncc1)NC(=O)[C@H](CC(=O)O)NC(=O)[C@H](CO)NC(=O)[C@@H](NC(=O)[C@](C)(Cc1ccccc1F)NC(=O)[C@@H](NC(=O)CNC(=O)[C@H](CCC(N)=O)NC(=O)C(C)(C)NC(=O)[C@@H](N)Cc1ccc(O)cc1)[C@@H](C)O)[C@@H](C)O)[C@@H](C)CC)C(=O)N[C@@H](CCC(=O)O)C(=O)N[C@@H](Cc1ccc(O)cc1)C(=O)N[C@@H](CC(C)C)C(=O)N[C@@H](CCC(=O)O)C(=O)N[C@@H](CCC(=O)O)C(=O)NCC(=O)NCC(=O)N1CCC[C@H]1C(=O)N[C@@H](CO)C(=O)N[C@@H](CO)C(=O)NCC(=O)N[C@@H](C)C(=O)N1CCC[C@H]1C(=O)N1CCC[C@H]1C(=O)N1CCC[C@H]1C(=O)N[C@@H](CCC(=O)O)C(N)=O [Example 464] (H-Y[Aib]QGT[αMePhe(2-F)]TSD[4Pal][αMeS]ILLDKK([AEEA-γGlu-C18 diacid])AQ[Aib]AFIEYLEEGGPSSGAPPPE-NH2) | – | – | – | – | – | – | – | 19.9 | – | 194 | – | 45.5 | 0.466 | 0.072 | 1.25
10 | H-Y[Aib]QGT[αMePhe(2-F)]TSD[4Pal][αMeS]I[αMeL]LD[Orn]K([AEEA-γGlu-C18 diacid])AA[Aib]EFI[dE][αMeY]LIEGGPSSGAPPPSGQ-OH [Example 722] | – | – | – | – | – | – | – | 0.953 | – | 170 | – | 27.2 | 0.252 | 0.01 | 1.71
11 | Y[Aib]QGT[αMePhe(2-F)]TSD[4Pal][αMeS]I[αMeL]LD[Orn]K([AEEA-γGlu-C18 diacid])AQ[αMe4Pal]EFI[dE][αMeY]LIEGGPPS[Aib][Orn]PPP[Orn]SE-NH2 [Example 1196] | 0.418 | – | 0.00756 | – | 1.9 | – | – | 0.605 | – | 257 | – | 45.4 | – | – | –
12 | Y[Aib]QGTFTSD[4Pal]SK[αMeL]LDKK([AEEA-γGlu-C18 diacid])AQ[Aib]AFIEYLIA[Aib]GESSGEPPPSGE-NH2 [Example 286] | – | – | – | – | – | – | 3.45 | 11.5 | 0.0845 | 228 | 2.2 | 925 | – | – | –
